Structures can show the parent of a compound that is named as a salt.
Assays:
[1] = test system: human non-small cell lung A549
[2] = cancer cell line cytotoxicity assay; details: human, A549 cells (non-small cell lung cancer cell line)
[3] = test system: axolotl (Ambystoma mexicanum) embryo tail regeneration
Hsp90α = Hsp90α (Homo sapiens, UniProt P07900); assay: standard Hsp90α inhibition; type: binding
[4] = second generation clinical analogue; cited from earlier work
[5] = second generation clinical analogue; cited from earlier work; remark: listed apart in the source

## 17-O-demethyl-reblastatin
[1]
  IC50: > 50 µM

## COC1=C2C[C@@H](C)C[C@H](OC)[C@H](O)[C@@H](C)/C=C(\C)[C@H](OC(N)=O)[C@@H](OC)/C=C\C=C(/C)C(=O)NC(=CC1=O)C2=O [Gdm, Geldanamycin]
[2]
  IC50: 0.001 µM
[3]; 10 μM, axolotl embryos
  dose-response: observation at the highest dose: developmental abnormalities and toxicity
[3]; axolotl (Ambystoma mexicanum), in vivo, 7 day
  axolotls dead at day 7: 3

## COc1c(O)cc2cc1C[C@@H](C)C[C@H](OC)[C@H](O)[C@@H](C)/C=C(\C)[C@H](OC(N)=O)[C@@H](OC)CC/C=C(\C)C(=O)N2 [reblastatin]
[2]
  IC50: 0.7 µM
Hsp90α
  IC50: 0.005 to 0.03 µM

## C=CCNc1c(O)cc2c(O)c1C[C@@H](C)C[C@H](OC)[C@H](O)[C@@H](C)/C=C(\C)[C@H](OC(N)=O)[C@@H](OC)/C=C\C=C(/C)C(=O)N2 [retaspimycin hydrochloride/IPI-504, retaspimycin hydrochloride]
[4]
  hepatotoxicity relative to first generation analogues: reduced hepatotoxicity
[5]
  solubility relative to first generation analogues: improved solubility

Reference: publication PMC5339036 (Angewandte Chemie (International ed. in English), 2017)
